Results reported in paper PMC8763382, “2-Sulfonylpyrimidines as Privileged Warheads for the Development of S. aureus Sortase A Inhibitors” (Frontiers in Molecular Biosciences, 2022).
“And” between values parts separate entries of the source, which are not always exact repeats. Identical values can stand only once.

Experiments:
S. aureus SrtA = target: T1, S. aureus SrtA (Staphylococcus aureus, UniProt Q2FV99); assay: fluorometric enzyme assay of SrtA transpeptidation (Abz-LPETG-Dap(Dnp)-OH substrate); format: biochemical; conditions: for k inact: maximum inactivation rate; for k inact / KI (inactivation) / k 2nd: Tris pH 7.50, n. i. = <20% inhibition at 100 µM; for KI (inactivation): read-out: KI, dissociation constant of the reversible enzyme-inhibitor complex; for k 2nd: second-order rate of inhibition; for SrtA inhibition (in words): fluorometric enzyme assay, inhibitor concentration 100 µM
T1 construct: His tag (inferred from IMAC on a HisTrap column); made in house; host or cells: E. coli BL21 Gold (DE3)
Procedure: To evaluate the inhibition potency of the parent sulfonylpyrimidine 4, this compound was tested by means of a fluorometric enzyme assay with recombinantly expressed S. aureus SrtA ([Schmohl et al., 2017b]) and Abz-LPETG-Dap (Dnp)-OH as substrate. […] To verify the irreversible mode of inhibition, we determined the maximum inactivation rate k inact, the dissociation constant of the reversible enzyme-inhibitor complex KI, and the second-order rate of inhibition k 2nd. For compound 4, a k inact = 0.00065 s^−1 was found, which is very low compared to other covalent SrtA inhibitors ([Chan et al., 2017]; [Barthels et al., 2020]; [Jaudzems et al., 2020]).
Inhibition assays of S. aureus SrtA transpeptidation reactions were performed as described previously ([Barthels et al., 2020]). Briefly, the recombinantly expressed SrtA (final concentration: 1 µM) was incubated in assay buffer (50 mM Tris, 150 mM NaCl, 5 mM CaCl2, pH 7.50) with 25 µM of the FRET-pair substrate Abz-LPETG-Dap (Dnp)-OH (Genscript, Piscataway, New Jersey) and 0.5 mM tetraglycine (Sigma Aldrich, St. Louis, Missouri). Inhibitors were added from DMSO stocks. Reactions were initiated by addition of SrtA and monitored for 30 min at 30°C in an Infinite M200 Pro plate reader with λex 320 nm/λem 430 nm (Tecan, Männedorf, Switzerland). Three technical replicates were carried out for each inhibitor in black flat-bottom 96-well plates (Greiner bio-one, Kremsmünster, Austria). The enzyme kinetics of irreversible SrtA inactivation were analyzed as described previously ([Barthels et al., 2020]).

cathepsin L (hCatL) = target: T2, cathepsin L (hCatL) (Homo sapiens, UniProt P07711); assay: protease selectivity panel, fluorometric assay cathepsin L; format: biochemical; conditions: 100 µM inhibitor; read-out: CatL inhibition relative to the DMSO control
T2 construct: purchased Calbiochem, Merck Millipore
Procedure: (§1) To investigate how these sulfonylpyrimidines affect the activity of other cysteine and serine proteases, a selectivity panel was constructed from a matrix of 6 diverse sulfonylpyrimidines and 6 different proteases. The compounds were assayed at a final compound concentration of 100 µM for the cysteine proteases human cathepsin B (hCatB), cathepsin L (hCatL), and T. brucei rhodesain (Rd). Furthermore, the serine proteases NS2B-NS3 from Zika virus (ZIKV), the homologous protease from Dengue virus (DENV), and the human protease urokinase plasminogen activator (uPA) were tested for their susceptibility.
(§2) Fluorometric assays of the ZIKV/DENV NS2B/NS3 protease were performed as described previously ([Maus et al., 2021]). The assay was carried out in triplicates at 25°C in assay buffer (50 mM Tris, pH 9.0, 20% glycerol (v/v), and 1 mM CHAPS). 100 µM Boc-Gly-Arg-Arg-AMC (Bachem, Bubendorf, Switzerland) was used as a substrate. Fluorometric assays for cathepsin B, cathepsin L, and rhodesain (Calbiochem, Merck Millipore, Burlington, Massachusetts) were performed as described previously ([Klein et al., 2020a]). Cbz-Phe-Arg-AMC (Bachem, Bubendorf, Switzerland) was used as substrate (100 μM for cathepsin B, 6.5 μM for cathepsin L, and 10 µM for rhodesain). Fluorometric assays for urokinase plasminogen activator were performed as described previously ([Angelini et al., 2012]). 240 µM Cbz-Gly-Arg-Arg-AMC (Bachem, Bubendorf, Switzerland) was used as a substrate.

T. brucei rhodesain (Rd) = target: T3, T. brucei rhodesain (Rd) (Trypanosoma brucei rhodesiense, UniProt Q95PM0); assay: protease selectivity panel, fluorometric assay rhodesain; format: biochemical; conditions: 100 µM inhibitor; n. i. = no inhibition at 100 µM; read-out: Rd inhibition relative to the DMSO control
T3 construct: purchased Calbiochem, Merck Millipore
Procedure: as §1, §2

[1] = target: human protease urokinase plasminogen activator (uPA) (Homo sapiens, UniProt P00749); assay: protease selectivity panel, fluorometric assay urokinase plasminogen activator; format: biochemical; conditions: 100 µM inhibitor; n. i. = no inhibition at 100 µM; read-out: uPA inhibition relative to the DMSO control
Procedure: as §1, §2

[2] = target: T4, human cathepsin B (hCatB) (Homo sapiens, UniProt P07858); assay: protease selectivity panel, fluorometric assay cathepsin B; format: biochemical; conditions: 100 µM inhibitor; read-out: CatB inhibition relative to the DMSO control
T4 construct: purchased Calbiochem, Merck Millipore
Procedure: as §1, §2

DENV NS2B/NS3 protease = DENV NS2B/NS3 protease (Dengue virus type 2, UniProt P29990); assay: protease selectivity panel, fluorometric assay DENV NS2B/NS3 protease; format: biochemical; conditions: 100 µM inhibitor; n. i. = no inhibition at 100 µM; read-out: DENV inhibition relative to the DMSO control
Procedure: as §1, §2

[3] = target: T5, NS2B-NS3 from Zika virus (ZIKV) (Zika virus, UniProt Q32ZE1); assay: protease selectivity panel, fluorometric assay ZIKV NS2B/NS3 protease; format: biochemical; conditions: 100 µM inhibitor; read-out: ZIKV inhibition relative to the DMSO control
T5 construct: The ZIKV NS2B/NS3 protease is a serine protease and contains two non-catalytic cysteine residues
Procedure: as §1, §2

[4] = cysteine reactivity assay (competitive fluorescence assay with probe 8); format: physicochemical; conditions: phosphate buffer (1×PBS) pH 7.5
Source text: In order to study the kinetics of sulfonylpyrimidines reacting with free cysteine in solution, a strategy for a competitive fluorescence-based assay was adapted from previous works ([Epps and Taylor, 2001]; [Sameshima et al., 2017]). […] The reaction of probe 8 with cysteine liberates 4-methylumbelliferone as a fluorometrically detectable product (Figure 7A), and thus, the fluorescence increase can be described by the second-order rate constant k probe (Equation 1).
Upon the addition of competitive and irreversible cysteine modifiers such as sulfonylpyrimidines, the fluorescence increase of the probe reaction was hyperbolically attenuated (Figure 7B). According to the conceptual deduction described previously ([Epps and Taylor, 2001]; [Sameshima et al., 2017]), the experimental fluorescence curves can be analyzed by nonlinear regression as first-order reaction progress curves (Equation 2). The parameter k obs describes the curvature corresponding to the sum of the competing kinetics (Equation 3). Under the assumptions that 1) the competitive reaction between sulfonylpyrimidines vs. probe with cysteine is started by simultaneous addition, and 2) sulfonylpyrimidines are added at a much higher concentration than cysteine (5 µM) and the probe (5 µM), the k obs values depend substantially on the k chem value. The compound-specific second-order inactivation parameter k chem can be determined by linear regression from the k obs values of the dilution series (Equation 4). d[FL]/dt=kprobe[Cys][probe] (1) FL=[Cys]total⋅kprobe [probe]/kprobe [probe] + kchem [sulfonylpyrimidine](1−e^−kobs⋅t) (2) kobs=kchem [sulfonylpyrimidine]+kprobe [probe] (3) kchem=kobs/[sulfonylpyrimidine] (4)
Kinetic characterization of the reaction between sulfonylpyrimidines and cysteine was performed in degassed phosphate buffer (1×PBS, pH 7.5) or individual cases in bicarbonate buffer (20 mM NaHCO3, 100 mM NaCl, pH 7.5). Three technical replicates were carried out for each sulfonylpyrimidine in black flat-bottom 96-well plates. For this purpose, 50 µL buffered solution (including 5% (v/v) DMSO) of the respective sulfonylpyrimidine derivative (final: 250–3 µM) and the cysteine reactive probe 8 (final: 5 µM) were premixed. Reactions were initiated by the addition of 50 µL cysteine (final: 5 µM), dissolved in the respective buffer, and monitored for 30 min at 30°C in an Infinite M200 Pro plate reader with λex 380 nm/λem 460 nm. To calculate k obs and k chem values, fluorescence curves were fitted using the same non-linear regression as for in vitro inhibition of SrtA ([Barthels et al., 2020]).

T1 sequence (Q2FV99 60-206): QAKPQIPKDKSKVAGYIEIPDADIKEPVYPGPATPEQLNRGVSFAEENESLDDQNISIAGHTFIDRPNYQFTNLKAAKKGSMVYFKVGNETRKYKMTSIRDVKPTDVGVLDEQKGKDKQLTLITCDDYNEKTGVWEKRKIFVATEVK
DENV NS2B/NS3 protease, sequence (P29990 1398-1437): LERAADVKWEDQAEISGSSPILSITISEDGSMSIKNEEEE
DENV NS2B/NS3 protease, sequence (P29990 1476-1653): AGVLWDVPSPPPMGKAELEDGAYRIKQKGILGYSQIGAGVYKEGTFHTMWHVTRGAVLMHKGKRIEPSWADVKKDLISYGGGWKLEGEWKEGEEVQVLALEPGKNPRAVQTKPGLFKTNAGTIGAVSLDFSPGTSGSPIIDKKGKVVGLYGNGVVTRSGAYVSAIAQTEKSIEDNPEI
T2 sequence (P07711 114-333): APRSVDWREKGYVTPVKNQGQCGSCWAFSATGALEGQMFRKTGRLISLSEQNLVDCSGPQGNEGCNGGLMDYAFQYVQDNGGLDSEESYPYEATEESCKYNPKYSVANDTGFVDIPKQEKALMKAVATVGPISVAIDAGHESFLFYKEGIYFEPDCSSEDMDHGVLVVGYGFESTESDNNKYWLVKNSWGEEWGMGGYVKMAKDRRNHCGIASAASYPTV
T3 sequence (Q95PM0 entry or part of it): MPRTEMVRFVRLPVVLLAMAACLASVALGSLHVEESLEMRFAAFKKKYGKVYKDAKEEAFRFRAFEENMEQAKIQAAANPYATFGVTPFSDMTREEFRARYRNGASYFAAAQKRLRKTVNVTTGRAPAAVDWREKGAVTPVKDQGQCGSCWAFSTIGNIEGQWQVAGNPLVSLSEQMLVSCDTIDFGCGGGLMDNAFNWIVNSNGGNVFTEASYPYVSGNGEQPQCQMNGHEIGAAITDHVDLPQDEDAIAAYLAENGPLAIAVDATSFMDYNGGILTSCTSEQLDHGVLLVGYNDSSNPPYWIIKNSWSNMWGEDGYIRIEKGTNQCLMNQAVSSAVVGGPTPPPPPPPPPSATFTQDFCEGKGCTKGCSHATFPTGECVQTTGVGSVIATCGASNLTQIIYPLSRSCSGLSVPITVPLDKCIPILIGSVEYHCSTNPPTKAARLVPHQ
T5 sequence (Q32ZE1 1499-1676): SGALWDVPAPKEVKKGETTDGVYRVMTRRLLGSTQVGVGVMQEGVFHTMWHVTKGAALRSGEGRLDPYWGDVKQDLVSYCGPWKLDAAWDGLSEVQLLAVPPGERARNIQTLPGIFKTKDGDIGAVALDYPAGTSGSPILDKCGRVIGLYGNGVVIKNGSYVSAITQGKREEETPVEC
T5 sequence (Q32ZE1 1421-1460): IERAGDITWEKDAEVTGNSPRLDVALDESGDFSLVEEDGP

Structure (SMILES)	k inact (S. aureus SrtA)	k 2nd (S. aureus SrtA)	melting point [°C]	SrtA inhibition (in words) (S. aureus SrtA)	other results
CS(=O)(=O)c1ncc(Cl)c(C(=O)NCC(=O)Nc2cccc(Oc3ccccc3)c2)n1 [Compound 5b]	0.00082 ± 0.00004 s⁻¹	1,175 M^−1min^−1 and 1,175 ± 67 M^−1min^−1	91		KI (inactivation) (S. aureus SrtA): 42.4 ± 4.62 µM
CS(=O)(=O)c1ncc(Cl)c(C(=O)Nc2ccc(-c3ccc(C#N)cc3)cc2)n1 [Compound 5d]	n. i.	n. i.	267		
CS(=O)(=O)c1ncc(Cl)c(C(=O)Nc2ccc3[nH]ncc3c2)n1 [Compound 5f]	n. i.	n. i.	231		
Cc1ccc(-c2csc(NC(=O)c3nc(S(C)(=O)=O)ncc3Cl)n2)cc1 [Compound 5g]	n. i.	n. i.	280		
CS(=O)(=O)c1ncc(Cl)c(C(=O)N2CCc3ccccc3C2)n1 [Compound 5h]	n. i.	n. i.	218		
CCC(CC)NC(=O)c1nc(S(C)(=O)=O)ncc1Cl [Compound 5i]	n. i.	n. i.	146		
CS(=O)(=O)c1ncc(Cl)c(C(=O)N(Cc2ccccc2)Cc2ccccc2)n1 [Compound 5k]	n. i.	n. i.	68		
CS(=O)(=O)c1ncc(Cl)c(C(=O)Nc2cccc(Sc3ccccc3)c2)n1 [Compound 6b]	0.00578 ± 0.00033 s⁻¹	7,305 ± 294 M^−1min^−1	135		KI (inactivation) (S. aureus SrtA): 47.5 ± 4.62 µM
CS(=O)(=O)c1ncc(Cl)c(C(=O)Nc2cccc(OC3CCCCC3)c2)n1 [Compound 6c]	0.00864 ± 0.00092 s⁻¹	6,593 M^−1min^−1 and 6,593 ± 243 M^−1min^−1	144		KI (inactivation) (S. aureus SrtA): 78.8 ± 9.92 µM
CS(=O)(=O)c1ncc(Cl)c(C(=O)Nc2cccc(Cc3ccccc3)c2)n1 [Compound 6d]	0.00618 ± 0.00025 s⁻¹	6,181 ± 489 M^−1min^−1	148		KI (inactivation) (S. aureus SrtA): 60.3 ± 6.4 µM
COc1cccc(NC(=O)c2nc(S(C)(=O)=O)ncc2Cl)c1 [Compound 6e]		882 M⁻¹ min⁻¹ and 882 ± 43 M⁻¹ min⁻¹			Ki (S. aureus SrtA): > 100 µM
CS(=O)(=O)c1ncc(Cl)c(C(=O)Nc2cccc(-c3ccccc3)c2)n1 [Compound 6f]		588 M⁻¹ min⁻¹ and 588 ± 48 M⁻¹ min⁻¹	164		Ki (S. aureus SrtA): > 100 µM
CS(=O)(=O)c1ncc(Cl)c(C(=O)Nc2ccccc2Oc2ccccc2)n1 [Compound 6g]			177	complete abolition of inhibition	inhibition at 100 µM (cathepsin L (hCatL)): 29.4%; inhibition at 100 µM (T. brucei rhodesain (Rd)): 15%; inhibition at 100 µM [1]: 67%; inhibition at 100 µM (S. aureus SrtA; read-out: SrtA inhibition relative to the DMSO control): 21.8%; inhibition at 100 µM [2]: 11.8%; inhibition at 100 µM (DENV NS2B/NS3 protease): 2.6%; inhibition at 100 µM [3]: 18.3%
CS(=O)(=O)c1ncc(Cl)c(C(=O)Nc2ccc(Oc3ccccc3)cc2)n1 [Compound 6h]	n. i.	n. i.	195	complete abolition of inhibition	
CS(=O)(=O)c1ncc(Cl)c(C(=O)Nc2cccc(OCc3ccccc3)c2)n1 [Compound 6k]	n. i.	n. i.	154	inhibition was completely abolished	
CS(=O)(=O)c1ncc(Cl)c(C(=O)Nc2ccc3c(c2)oc2ccccc23)n1 [Compound 6l]	n. i.	n. i.	250	complete loss of inhibition	
CS(=O)(=O)c1ncc(Cl)c(C(=O)Nc2cccc(C(=O)Nc3ccccc3)c2)n1 [Compound 6m]	n. i.	n. i.	237	inhibition was completely abolished	
CS(=O)(=O)c1ncc(Cl)c(C(=O)NCCSc2ccccc2)n1 [Compound 6n]	n. i.	n. i.		complete loss of inhibition	
Cc1cnc(S(C)(=O)=O)nc1C(=O)Nc1cccc(Oc2ccccc2)c1 [Compound 7d]		1,204 ± 139 M^−1min^−1	164		S. I. (k 2nd/k chem) (S. aureus SrtA; SrtA k 2nd over cysteine k chem): 196; Cysteine k chem [4]: 6.14 ± 1.71 M⁻¹ min⁻¹
